pIC50: −log10 of the molar value. Calls of active or inactive are those of the source. The calls are words filed in the database; no cut-off is given here.
How the values were obtained:
[1] = Antioxidant activity in pH 7.4 phosphate buffer assessed as DPPH radical scavenging activity at 4 to 100 uM after 30 mins by spectrophotometric analysis (reference value: 0.811 +/- 0.02%); format: functional
[2] = Antioxidant activity in pH 10 Tris-HCl buffer assessed as superoxide anion radical scavenging activity by measuring rate of epinephrine auto-oxidation by spectrophotometric analysis; format: functional
[3] = Antioxidant activity in pH 7.4 potassium phosphate buffer assessed as CuCl2/ascorbic acid induced hydroxyl radical scavenging activity by measuring deoxyribose degradation product formation after 20 mins by thiobarbituric acid based absorbance analysis; format: functional
[4] = Reducing power of the compound assessed as reducing Fe3+ power at 80 uM using K3Fe(CN)6 in pH 6.6 phosphate buffer after 20 mins by spectrophotometric analysis
[5] = Antioxidant activity in pH 7.4 potassium phosphate buffer assessed as CuCl2/ascorbic acid induced hydroxyl radical scavenging activity by measuring trolox equivalent antioxidant capacity by measuring IC50 Trolox/IC50 test compound ratio in presence of deoxyribose by thiobarbituric acid based absorbance analysis; format: functional
[6] = Pro-oxidant activity in pH 7.4 potassium phosphate buffer assessed as reduction in CuCl2/ascorbic acid induced hydroxyl radical scavenging activity at > 66 uM in presence of deoxyribose by measuring deoxyribose degradation product formation after 20 mins by thiobarbituric acid based absorbance analysis
[7] = Antioxidant activity in pH 7.4 phosphate buffer assessed as H2O2 scavenging activity by measuring H2O2 decomposition at 1.34 to 10.72 uM by spectrophotometric analysis; format: functional
[8] = Antioxidant activity in pH 10 Tris-HCl buffer assessed as superoxide anion radical scavenging activity by measuring rate of epinephrine auto-oxidation at 10.72 uM by spectrophotometric analysis (reference value: 0.0186 +/- 0.004%); format: functional
[9] = Antioxidant activity in pH 7.4 potassium phosphate buffer assessed as CuCl2/ascorbic acid induced hydroxyl radical scavenging activity at 66 uM in presence of deoxyribose after 20 mins by thiobarbituric acid based absorbance analysis (reference value: 0.617 +/- 0.02%); format: functional
[10] = Antioxidant activity in pH 7.4 phosphate buffer assessed as DPPH radical scavenging activity after 30 mins by spectrophotometric analysis; format: functional
[11] = Antioxidant activity in pH 10 Tris-HCl buffer assessed as superoxide anion radical scavenging activity by measuring rate of epinephrine auto-oxidation at 8.04 uM by spectrophotometric analysis (reference value: 0.0186 +/- 0.004%); format: functional
[12] = Pro-oxidant activity in pH 10 Tris-HCl buffer assessed as reduction in superoxide anion radical scavenging activity by measuring rate of epinephrine auto-oxidation at 10.72 uM by spectrophotometric analysis

SMILES	Activity [1]	Activity [2]	Activity [3]	pIC50 [3]	Activity [4]	Ratio IC50 [5]	Activity [6]	Activity [7]	Activity [8]	Activity [9]	pIC50 [10]	Activity [11]	Activity [12]
CCOC(=O)c1c(-c2ccc(C)cc2)cn2c1c(=O)oc1ccccc12	< 14%	Dose-dependent effect	Dose-dependent effect	4.98	Dose-dependent effect	0.95	Active	inactive	–	–	–	–	–
COC(=O)c1c(-c2cccc(Cl)c2)cn2c1c(=O)oc1ccccc12	< 14%	Dose-dependent effect	Dose-dependent effect	5.08	inactive	1.18	Active	inactive	83%	90%	–	–	–
Cc1c(C)c2c(c(C)c1O)CCC(C)(C(=O)O)O2 (stereo unspecified) [TROLOX]	–	–	–	5.00	–	–	–	–	–	–	4.44	–	–
CCOC(=O)c1c(-c2cc(OC)c(OC)c(OC)c2)cn2c1c(=O)oc1ccccc12	< 14%	Dose-dependent effect	Dose-dependent effect	5.32	inactive	2.06	Active	inactive	–	92%	–	83%	Active

Reference: ChEMBL document CHEMBL4359836, “Synthesis and Biological Assessment of Pyrrolobenzoxazine Scaffold as a Potent Antioxidant” (J Med Chem, 2019)
